Patent publication US20140116103A1, “FOLIARLY APPLICABLE SILICON NUTRITION COMPOSITIONS & METHODS” (priority 2008, published 2014)

Experiments:
Bipolaris oryzae = format: in vivo, Bipolaris oryzae on rice; conditions: A, B, C, F compared to control, D compared to A
Protocol: The trial was arranged in a completely randomized design with five replications. Each experimental unit consisted of one plastic container with 5 liters of nutrient solution and four rice plants. The experiment was repeated once. Compositions A-F were applied to rice leaves as foliar sprays 24 hours before inoculation with the brown spot pathogen Bipolaris oryzae. Solutions of compositions A-D were prepared at 2% concentration. The fungicide (composition F) was prepared at 1.5 ml/liter concentration. Plants at the fifth leaf tiller growth stage were sprayed using a DeVilbiss No. 15 atomizer. The base of the plants was covered during spraying to prevent run-off of the sprayed materials into the nutrient solution.
A pathogenic isolate of B. oryzae (CNPAF-HO 82), obtained from symptomatic rice plants, was used to inoculate the plants. A conidial suspension of B. oryzae (5×10^3 conidia/ml) was applied as a fine mist to the adaxial leaf blades of each plant until runoff using a VL Airbrush atomizer (Paasche Airbrush Co., Chicago, Ill.). Immediately after inoculation, plants were transferred to a mist chamber at 25±2° C. with an initial 24 h dark period. […]
Brown spot severity on leaves of each plant was scored at 24, 48, 72 and 96 hours after inoculation using an International Rice Research Institute (IRRI) scale based on the percentage of diseased leaf area.

[1] = generally accepted limit; cited from earlier work

| SMILES | necrotic lesions on leaves (number and size) (Bipolaris oryzae) | limit of solubility in water [1] |
| --- | --- | --- |
| CC1COC(Cn2cncn2)(c2ccc(Oc3ccc(Cl)cc3)cc2Cl)O1 (centres unmarked) [Composition F, diphenoconazole] | complete absence of lesions | – |
| O[Si](O)(O)O [monosilicic acid] | – | about 2 mM |
